Measured values as given in patent US4335249A, “Herbicidal diphenyl ethers, sulfides, sulfoxides and sulfones” (Rohm and Haas Company, priority 1976, dated 1982).

What was measured:
Type in all cases: in vivo
[1] = test system: barnyardgrass (Echinochloa crusgalli); experiment: Postemergence herbicidal activity, barnyardgrass; details: Echinochloa crus-galli, post-emergence, 336 h; Post, 2 lb/A
In short: (§1)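 Application rates are expressed as lb/A, with the compound taken up in acetone, then water, and sprayed at a 50 gal/acre-equivalent carrier volume. Treatment timing: immediately post-sowing for preemergence; two weeks after germination for postemergence.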

[2] = test system: cocklebur (Xanthium pensylvanicum); experiment: Postemergence herbicidal activity, cocklebur; details: Xanthium strumarium, post-emergence, 336 h, 2 lb/A
In short: (§2)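 Seeds were sown in soil flats and sprayed either right after planting (preemergence) or two weeks after germination (postemergence). Compound in acetone diluted with water was applied at a 50 gal/acre carrier volume at rates in lb/A. About two weeks later, average percent control was scored as percent of plants killed.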

marigold (Tagetes spp.) [3] = experiment: Postemergence herbicidal activity, marigold; details: post-emergence, 336 h, 2 lb/A
In short: as §2

[4] = test system: tomato (Lycopersicon esculentum); experiment: Postemergence herbicidal activity, tomato; details: Solanum lycopersicum, post-emergence, 336 h, Post, 2 lb/A
In short: as §2

wild oats (Avena fatua) [5] = experiment: Preemergence herbicidal activity, wild oats; details: Avena fatua, pre-emergence, 336 h, Pre, 2 lb/A; read-out: % control, Wild oat
In short: as §2

[6] = test system: downybrome (Bromus tectorum); experiment: Postemergence herbicidal activity, downybrome; details: Bromus tectorum, post-emergence, 336 h, Post, 2 lb/A
In short: as §2

[7] = test system: barnyardgrass (Echinochloa crusgalli); experiment: Preemergence herbicidal activity, barnyardgrass; details: Echinochloa crus-galli, pre-emergence, 336 h; Pre, 2 lb/A
In short: as §1

[8] = test system: morningglory (Ipomoca spp.); experiment: Preemergence herbicidal activity, morningglory; details: Ipomoea, pre-emergence, 336 h, 2 lb/A
In short: as §2

wild oats (Avena fatua) [9] = experiment: Postemergence herbicidal activity, wild oats; details: Avena fatua, post-emergence, 336 h, Post, 2 lb/A; read-out: % control, Wild oat
In short: as §2

[10] = test system: velvetleaf (Abutilon theophrasti); experiment: Postemergence herbicidal activity, velvetleaf; details: Abutilon theophrasti, post-emergence, 336 h, 2 lb/A
In short: as §1

foxtail (Setaria spp.) [11] = experiment: Preemergence herbicidal activity, foxtail; details: Setaria, pre-emergence, 336 h; Pre, 2 lb/A
In short: as §2

[12] = test system: yellow nutsedge (Cyperus esculentus); experiment: Postemergence herbicidal activity, yellow nutsedge; details: Cyperus, post-emergence, 336 h, 2 lb/A
In short: as §2

[13] = test system: cocklebur (Xanthium pensylvanicum); experiment: Preemergence herbicidal activity, cocklebur; details: Xanthium strumarium, pre-emergence, 336 h, 2 lb/A
In short: as §2

[14] = test system: tomato (Lycopersicon esculentum); experiment: Preemergence herbicidal activity, tomato; details: Solanum lycopersicum, pre-emergence, 336 h; Pre, 2 lb/A
In short: as §2

[15] = test system: yellow nutsedge (Cyperus esculentus); experiment: Preemergence herbicidal activity, yellow nutsedge; details: Cyperus, pre-emergence, 336 h, 2 lb/A
In short: as §2

marigold (Tagetes spp.) [16] = experiment: Preemergence herbicidal activity, marigold; details: pre-emergence, 336 h, 2 lb/A
In short: as §2

[17] = test system: downybrome (Bromus tectorum); experiment: Preemergence herbicidal activity, downybrome; details: Bromus tectorum, pre-emergence, 336 h, Pre, 2 lb/A
In short: as §2

[18] = test system: velvetleaf (Abutilon theophrasti); experiment: Preemergence herbicidal activity, velvetleaf; details: Abutilon theophrasti, pre-emergence, 336 h; Pre, 2 lb/A
In short: as §2

[19] = test system: morningglory (Ipomoca spp.); experiment: Postemergence herbicidal activity, morningglory; details: Ipomoea, post-emergence, 336 h, 2 lb/A
In short: as §2

foxtail (Setaria spp.) [20] = experiment: Postemergence herbicidal activity, foxtail; details: Setaria, post-emergence, 336 h, Post, 2 lb/A
In short: as §2

Row | Compound | pest or weed control at 2241.7 g/ha [1] | pest or weed control at 2241.7 g/ha [2] | pest or weed control at 2241.7 g/ha (marigold (Tagetes spp.) [3]) | pest or weed control at 2241.7 g/ha [4] | pest or weed control at 2241.7 g/ha (wild oats (Avena fatua) [5]) | pest or weed control at 2241.7 g/ha [6] | pest or weed control at 2241.7 g/ha [7] | pest or weed control at 2241.7 g/ha [8] | pest or weed control at 2241.7 g/ha (wild oats (Avena fatua) [9]) | pest or weed control at 2241.7 g/ha [10] | pest or weed control at 2241.7 g/ha (foxtail (Setaria spp.) [11]) | pest or weed control at 2241.7 g/ha [12] | pest or weed control at 2241.7 g/ha [13] | pest or weed control at 2241.7 g/ha [14] | pest or weed control at 2241.7 g/ha [15] | pest or weed control at 2241.7 g/ha (marigold (Tagetes spp.) [16]) | pest or weed control at 2241.7 g/ha [17] | pest or weed control at 2241.7 g/ha [18] | pest or weed control at 2241.7 g/ha [19] | pest or weed control at 2241.7 g/ha (foxtail (Setaria spp.) [20])
1 | CC(C)COC(=O)C(C)Oc1ccc(Oc2ccc(C(F)(F)F)cc2Cl)cc1 (centres unmarked) [Example 33] | 100% | 0% | 0% | 0% | 90% | 100% | 99% | 0% | 100% | 0% | 100% | 0% | 0% | 0% | 0% | 0% | 90% | 0% | 0% | 100%
2 | CCOC(=O)C(C)Oc1ccc(Oc2ccc(C(F)(F)F)cc2Cl)cc1OC (centres unmarked) [Example 8, Ethyl 2-[4-(2-chloro-4-trifluoromethylphenoxy)-2-methoxyphenoxy] propionate] | 0% | 0% | 0% | 0% | 0% | 0% | 0% | 0% | 0% | 0% | 99% | 0% | 0% | 0% | 0% | 0% | 0% | 0% | 0% | 0%
3 | CCCCCCOC(=O)C(C)Oc1ccc(Oc2ccc(C(F)(F)F)cc2Cl)cc1 (centres unmarked) [Example 36] | 100% | 0% | 0% | 0% | 0% | 60% | 100% | 0% | 100% | 0% | 100% | 0% | 0% | 0% | 0% | 0% | 0% | 0% | 0% | 100%
4 | CCOC(=O)C=CCOc1ccc(Oc2ccc(C(F)(F)F)cc2Cl)cc1 [Example 30] | 0% | 0% | 0% | 30% | 0% | 0% | 60% | 0% | 30% | 0% | 60% | 0% | 0% | 0% | 0% | 0% | 0% | 0% | 0% | 100%
